Assay results from publication PMC10037499, “High-Throughput Screen Reveals the Structure–Activity Relationship of the Antimicrobial Lasso Peptide Ubonodin” (ACS Central Science, 2023).
Where a SMILES comes first, the peptide text is derived from it.

Experiments:
[1] = test system: RNA polymerase (RNAP) in E. coli MC1061; experiment: High-throughput growth-based screen with NGS (enrichment value) for RNA polymerase inhibition; assay type: cell-based; conditions: log2 of frequency post-IPTG / frequency in cloning transformation library, single mutant library
How it was run: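 E. coli MC1061 carrying ubonodin single/double variant plasmid libraries was grown and induced with 10 µM or 100 µM IPTG; surviving colonies were sequenced by NGS. Enrichment value = log2 of variant frequency post-IPTG over frequency in the cloning transformation library; depletion indicates RNAP inhibition.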

[2] = test system: E. coli RNAP; conditions: cited from earlier work

CC[C@H](C)[C@@H]1NC(=O)[C@H](CO)NC(=O)CNC(=O)[C@H](CC(=O)O)NC(=O)CNC(=O)CNC(=O)CC[C@@H](C(=O)N[C@@H](Cc2ccc(O)cc2)C(=O)N[C@@H](Cc2ccccc2)C(=O)N[C@@H](CC(N)=O)C(=O)N[C@@H](CCCNC(=N)N)C(=O)N2CCC[C@H]2C(=O)N[C@@H](CCSC)C(=O)N[C@@H](Cc2c[nH]cn2)C(=O)N[C@H](C(=O)N[C@@H](Cc2c[nH]cn2)C(=O)N[C@@H](CC(=O)O)C(=O)N[C@@H](Cc2c[nH]c3ccccc23)C(=O)N[C@@H](CCC(N)=O)C(=O)N[C@H](C(=O)N[C@@H](CCSC)C(=O)N[C@@H](CC(=O)O)C(=O)N[C@@H](CO)C(=O)NCC(=O)N[C@@H](Cc2ccc(O)cc2)C(=O)N[C@@H](Cc2ccc(O)cc2)C(=O)NCC(=O)O)[C@@H](C)CC)[C@@H](C)CC)NC(=O)[C@H](C)NC1=O [WT, ubonodin] (HELM PEPTIDE1{G.G.D.G.S.I.A.E.Y.F.N.R.P.M.H.I.H.D.W.Q.I.M.D.S.G.Y.Y.G}$PEPTIDE1,PEPTIDE1,1:R1-8:R3$$$V2.0; C-terminus assumed)
Enrichment value ([1]; induction with 10 μM IPTG): −4.2 | Enrichment value ([1]; induction with 100 μM IPTG): −4.3 | Inhibition of E. coli RNAP in vitro [2]: inhibits E. coli RNAP in vitro
